IC50 data for ten compounds are collected here from patent US20210395239A1 (Hoffmann-La Roche Inc., priority 2018, published 2021).

pIC50: −log10 of the molar value.

The test deals with T1, human TLR7 (Homo sapiens, UniProt Q9NYK1).
T1 construct: host or cells: HEK293 (HEK-Blue hTLR7)
T1 sequence (Q9NYK1 27-1049): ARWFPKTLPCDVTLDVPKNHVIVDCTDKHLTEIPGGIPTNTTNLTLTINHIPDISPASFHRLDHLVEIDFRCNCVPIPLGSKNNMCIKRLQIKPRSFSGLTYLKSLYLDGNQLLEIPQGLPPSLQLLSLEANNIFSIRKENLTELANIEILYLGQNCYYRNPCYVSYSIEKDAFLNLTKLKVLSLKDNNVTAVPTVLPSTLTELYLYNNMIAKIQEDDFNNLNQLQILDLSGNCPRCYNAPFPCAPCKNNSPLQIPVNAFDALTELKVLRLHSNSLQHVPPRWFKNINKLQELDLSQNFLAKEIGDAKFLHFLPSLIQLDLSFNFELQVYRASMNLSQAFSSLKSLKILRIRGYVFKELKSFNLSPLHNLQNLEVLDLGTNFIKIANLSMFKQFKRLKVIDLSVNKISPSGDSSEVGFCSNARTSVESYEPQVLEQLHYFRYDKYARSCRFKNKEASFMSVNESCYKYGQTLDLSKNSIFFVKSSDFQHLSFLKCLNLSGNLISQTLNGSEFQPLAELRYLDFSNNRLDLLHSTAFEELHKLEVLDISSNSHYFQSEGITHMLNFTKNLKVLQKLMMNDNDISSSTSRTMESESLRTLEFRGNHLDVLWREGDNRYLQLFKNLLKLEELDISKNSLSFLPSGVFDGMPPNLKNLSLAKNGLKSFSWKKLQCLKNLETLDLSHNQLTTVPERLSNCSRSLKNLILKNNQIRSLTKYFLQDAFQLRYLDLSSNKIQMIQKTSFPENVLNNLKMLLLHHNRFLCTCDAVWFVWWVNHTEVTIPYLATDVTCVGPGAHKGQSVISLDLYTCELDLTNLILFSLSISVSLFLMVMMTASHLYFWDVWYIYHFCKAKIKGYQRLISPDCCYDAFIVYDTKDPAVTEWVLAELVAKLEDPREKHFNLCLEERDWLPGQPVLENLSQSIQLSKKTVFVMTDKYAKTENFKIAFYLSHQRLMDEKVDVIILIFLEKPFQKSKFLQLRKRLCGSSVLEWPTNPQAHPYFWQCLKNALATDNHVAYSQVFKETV
As to the kind of experiment: HEK293-Blue-hTLR-7 cells assay (SEAP reporter, R848 stimulation). It is filed as cell-based. The note with it: HEK293-Blue-hTLR7 cells, R848, 20 hrs; read-out: HEK/hTLR7 IC50. The procedure, abridged: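 HEK293-Blue-hTLR7 cells (NF-κB/AP-1-driven SEAP reporter) were stimulated with R848 alongside serially diluted compound at 1% final DMSO for 20 h at 37 °C. Supernatant SEAP was then developed with QUANTI-Blue for 2 h at 37 °C and absorbance read at 620–655 nm; antagonism is measured as reduced reporter signal.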
As for `C[C@@H]1CN(c2ccc(C#N)c3ncccc23)C[C@H](CN2CCN(c3ccc([C@H]4CNCCO4)cc3)CC2)O1` [Example 20, 5-[(2R,6S)-2-methyl-6-[[4-[4-[(2S)-morpholin-2-yl]phenyl]piperazin-1-yl]methyl]morpholin-4-yl]quinoline-8-carbonitrile], the pIC50 is 7.70.

Regarding `C[C@@H]1CN(c2ccc(C#N)c3ncccc23)C[C@H](CN2CCN(c3ccnc(N4CC(N)C4)n3)CC2)O1` [Example 23, 5-[(2S,6R)-2-[[4-[2-(3-aminoazetidin-1-yl)pyrimidin-4-yl]piperazin-1-yl]methyl]-6-methyl-morpholin-4-yl]quinoline-8-carbonitrile], the pIC50 is 7.30. In the case of `CO[C@H]1CN(c2nccc(N3CCN(C[C@H]4CN(c5ccc(C#N)c6ncccc56)C[C@@H](C)O4)CC3)n2)C[C@@H]1N` [Example 26, 5-[(2S,6R)-2-[[4-[2-trans-(3-amino-4-methoxy-pyrrolidin-1-yl)pyrimidin-4-yl]piperazin-1-yl]methyl]-6-methyl-morpholin-4-yl]quinoline-8-carbonitrile] it was 8.10; in that of `C[C@@H]1CN(c2ccc(C#N)c3ncccc23)C[C@H](CN2CCN(c3ccnc(N4CCC(N)CC4)n3)CC2)O1` [Example 27, 5-[(2S,6R)-2-[[4-[2-(4-amino-1-piperidyl)pyrimidin-4-yl]piperazin-1-yl]methyl]-6-methyl-morpholin-4-yl]quinoline-8-carbonitrile], 7.82; in that of `C[C@@H]1CN(c2ccc(C#N)c3ncccc23)C[C@H](CN2CCN(c3ccnc(NC4CNC4)n3)CC2)O1` [Example 28, 5-[(2S,6R)-2-[[4-[2-(azetidin-3-ylamino)pyrimidin-4-yl]piperazin-1-yl]methyl]-6-methyl-morpholin-4-yl]quinoline-8-carbonitrile], 7.96. The result for `C[C@@H]1CN(c2ccc(C#N)c3ncccc23)C[C@H](CN2CCN(c3ccnc(OCCN(C)C)n3)CC2)O1` [Example 30, 5-[(2S,6R)-2-[[4-[2-[2-(dimethylamino)ethoxy]pyrimidin-4-yl]piperazin-1-yl]methyl]-6-methyl-morpholin-4-yl]quinoline-8-carbonitrile] reads 7.80; that for `C[C@@H]1CN(c2ccc(C#N)c3ncccc23)C[C@H](CN2CCN(c3ccnc(N4CCN(C(=O)[C@@H]5CCCN5)CC4)n3)CC2)O1` [Example 31, 5-[(2R,6S)-2-methyl-6-[[4-[2-[4-[(2S)-pyrrolidine-2-carbonyl]piperazin-1-yl]pyrimidin-4-yl]piperazin-1-yl]methyl]morpholin-4-yl]quinoline-8-carbonitrile], 7.74; that for `C[C@@H]1CN(c2ccc(C#N)c3ncccc23)C[C@H](CN2CCN(c3ccnc(N4CCN(C(=O)CN(C)C)CC4)n3)CC2)O1` [Example 32, 5-[(2S,6R)-2-[[4-[2-[4-[2-(dimethylamino)acetyl]piperazin-1-yl]pyrimidin-4-yl]piperazin-1-yl]methyl]-6-methyl-morpholin-4-yl]quinoline-8-carbonitrile], 8.22. In the case of `C[C@@H]1CN(c2ccc(C#N)c3ncccc23)C[C@H](CN2CCN(c3cccc(N4CCN(C)CC4)n3)CC2)O1` [Example 33, 5-[(2R,6S)-2-methyl-6-[[4-[6-(4-methylpiperazin-1-yl)-2-pyridyl]piperazin-1-yl]methyl]morpholin-4-yl]quinoline-8-carbonitrile] it was 7.62; in that of `C[C@@H]1CN(c2ccc(C#N)c3ncccc23)C[C@H](CN2CCN(c3ccnc(N4CCN(C(=O)C5CCN5)CC4)n3)CC2)O1` (stereo partly drawn) [Example 34, 5-[(2S,6R)-2-[[4-[2-[4-(azetidine-2-carbonyl)piperazin-1-yl]pyrimidin-4-yl]piperazin-1-yl]methyl]-6-methyl-morpholin-4-yl]quinoline-8-carbonitrile], 7.57.
